Measured values: paper PMC7445743 (Journal of Medicinal Chemistry, 2020)
Where a name gives a salt, the structure may show the parent alone.

Experiments:
Conditions in all cases: supplement CSV
[1] = target: CAMK1G (Homo sapiens, UniProt Q96NX5)
[2] = target: CAMK2A (Homo sapiens, UniProt Q9UQM7)
[3] = target: DAPK3 (Homo sapiens, UniProt O43293)
[4] = target: PAK4 (Homo sapiens, UniProt O96013)
[5] = target: GSK3β (Homo sapiens, UniProt P49841)
[6] = target: T1, CaMK4 (Homo sapiens, UniProt Q16566)
T1 sequence (Q16566 1-473): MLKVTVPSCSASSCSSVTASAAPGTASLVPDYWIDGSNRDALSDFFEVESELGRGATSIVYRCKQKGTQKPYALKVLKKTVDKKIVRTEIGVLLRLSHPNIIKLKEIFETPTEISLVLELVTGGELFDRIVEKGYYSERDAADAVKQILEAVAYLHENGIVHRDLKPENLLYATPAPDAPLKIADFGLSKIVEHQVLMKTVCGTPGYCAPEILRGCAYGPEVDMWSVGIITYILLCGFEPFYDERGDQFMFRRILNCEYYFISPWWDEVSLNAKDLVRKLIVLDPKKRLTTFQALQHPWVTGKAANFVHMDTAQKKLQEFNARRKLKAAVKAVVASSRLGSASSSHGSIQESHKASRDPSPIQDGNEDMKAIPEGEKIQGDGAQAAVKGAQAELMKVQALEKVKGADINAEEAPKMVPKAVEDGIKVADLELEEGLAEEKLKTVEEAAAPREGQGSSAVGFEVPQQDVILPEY

[7] = target: T2, DCLK1 (Homo sapiens, UniProt O15075)
T2 sequence (O15075 1-740): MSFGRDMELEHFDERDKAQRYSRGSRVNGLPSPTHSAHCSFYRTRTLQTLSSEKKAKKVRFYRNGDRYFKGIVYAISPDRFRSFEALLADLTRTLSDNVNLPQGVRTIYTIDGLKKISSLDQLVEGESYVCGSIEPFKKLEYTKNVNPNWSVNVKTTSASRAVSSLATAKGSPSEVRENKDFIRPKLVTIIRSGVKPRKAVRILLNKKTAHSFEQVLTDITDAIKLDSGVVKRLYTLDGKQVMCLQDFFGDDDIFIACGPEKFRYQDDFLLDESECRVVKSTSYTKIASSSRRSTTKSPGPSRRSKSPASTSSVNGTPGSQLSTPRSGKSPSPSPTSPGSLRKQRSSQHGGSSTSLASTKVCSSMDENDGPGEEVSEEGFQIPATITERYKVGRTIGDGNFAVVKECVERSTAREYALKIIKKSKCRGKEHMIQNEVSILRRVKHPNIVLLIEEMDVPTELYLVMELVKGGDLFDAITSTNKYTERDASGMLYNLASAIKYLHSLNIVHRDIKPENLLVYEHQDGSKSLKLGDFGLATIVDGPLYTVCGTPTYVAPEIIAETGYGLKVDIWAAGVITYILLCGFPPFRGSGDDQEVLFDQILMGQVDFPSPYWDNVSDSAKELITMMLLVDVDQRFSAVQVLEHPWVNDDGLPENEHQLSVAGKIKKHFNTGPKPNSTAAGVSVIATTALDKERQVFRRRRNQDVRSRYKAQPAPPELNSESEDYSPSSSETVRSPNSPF

Chain of PAK4 (O96013 whole entry): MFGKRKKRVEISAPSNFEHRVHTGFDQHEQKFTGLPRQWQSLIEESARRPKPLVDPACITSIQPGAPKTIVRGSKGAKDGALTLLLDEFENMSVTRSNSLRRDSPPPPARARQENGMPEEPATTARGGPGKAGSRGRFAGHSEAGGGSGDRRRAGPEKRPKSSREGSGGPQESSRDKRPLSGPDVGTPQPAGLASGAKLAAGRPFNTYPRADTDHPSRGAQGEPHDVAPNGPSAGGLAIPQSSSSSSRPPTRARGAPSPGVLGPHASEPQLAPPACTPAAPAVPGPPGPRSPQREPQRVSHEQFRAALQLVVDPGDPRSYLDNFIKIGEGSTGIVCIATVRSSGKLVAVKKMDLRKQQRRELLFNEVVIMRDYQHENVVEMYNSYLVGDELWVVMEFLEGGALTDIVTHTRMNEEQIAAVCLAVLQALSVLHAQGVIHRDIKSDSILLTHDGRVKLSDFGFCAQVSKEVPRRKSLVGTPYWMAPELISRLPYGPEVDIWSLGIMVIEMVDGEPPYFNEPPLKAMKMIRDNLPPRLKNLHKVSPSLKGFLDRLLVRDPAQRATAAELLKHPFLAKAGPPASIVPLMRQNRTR
Chain of DAPK3 (O43293 whole entry): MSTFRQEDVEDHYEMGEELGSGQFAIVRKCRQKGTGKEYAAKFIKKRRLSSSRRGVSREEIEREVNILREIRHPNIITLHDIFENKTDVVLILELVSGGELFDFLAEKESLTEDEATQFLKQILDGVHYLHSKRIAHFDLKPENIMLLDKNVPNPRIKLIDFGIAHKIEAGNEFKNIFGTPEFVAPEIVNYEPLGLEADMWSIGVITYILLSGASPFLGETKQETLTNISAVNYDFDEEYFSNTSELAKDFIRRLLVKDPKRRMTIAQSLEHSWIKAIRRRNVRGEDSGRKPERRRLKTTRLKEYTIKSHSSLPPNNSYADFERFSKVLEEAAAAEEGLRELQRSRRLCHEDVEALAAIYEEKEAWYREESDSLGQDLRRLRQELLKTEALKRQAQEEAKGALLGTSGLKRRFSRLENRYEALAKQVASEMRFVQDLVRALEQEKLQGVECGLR
Chain of CAMK1G (Q96NX5 whole entry): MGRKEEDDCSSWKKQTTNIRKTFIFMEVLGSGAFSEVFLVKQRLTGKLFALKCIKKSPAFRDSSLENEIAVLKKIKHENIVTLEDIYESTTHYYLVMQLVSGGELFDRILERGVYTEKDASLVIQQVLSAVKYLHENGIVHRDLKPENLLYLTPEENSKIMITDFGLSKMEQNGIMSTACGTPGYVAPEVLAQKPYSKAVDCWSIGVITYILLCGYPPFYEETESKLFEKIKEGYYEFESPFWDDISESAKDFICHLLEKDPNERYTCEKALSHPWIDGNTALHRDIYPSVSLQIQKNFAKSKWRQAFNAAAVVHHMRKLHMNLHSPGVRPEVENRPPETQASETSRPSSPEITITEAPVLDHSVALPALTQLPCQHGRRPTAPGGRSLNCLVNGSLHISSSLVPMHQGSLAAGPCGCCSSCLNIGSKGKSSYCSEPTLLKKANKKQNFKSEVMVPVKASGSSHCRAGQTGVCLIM
Chain of GSK3β (P49841 whole entry, species assumed): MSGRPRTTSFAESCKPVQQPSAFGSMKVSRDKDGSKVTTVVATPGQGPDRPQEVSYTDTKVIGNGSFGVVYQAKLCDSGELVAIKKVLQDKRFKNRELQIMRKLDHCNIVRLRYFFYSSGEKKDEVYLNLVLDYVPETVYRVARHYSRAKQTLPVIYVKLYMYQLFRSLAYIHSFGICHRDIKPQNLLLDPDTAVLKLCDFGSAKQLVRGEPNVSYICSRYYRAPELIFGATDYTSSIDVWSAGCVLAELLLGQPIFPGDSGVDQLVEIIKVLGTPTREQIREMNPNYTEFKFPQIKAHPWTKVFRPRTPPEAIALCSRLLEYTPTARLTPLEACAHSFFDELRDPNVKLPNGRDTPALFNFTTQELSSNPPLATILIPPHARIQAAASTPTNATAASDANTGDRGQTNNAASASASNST
Chain of CAMK2A (Q9UQM7 whole entry): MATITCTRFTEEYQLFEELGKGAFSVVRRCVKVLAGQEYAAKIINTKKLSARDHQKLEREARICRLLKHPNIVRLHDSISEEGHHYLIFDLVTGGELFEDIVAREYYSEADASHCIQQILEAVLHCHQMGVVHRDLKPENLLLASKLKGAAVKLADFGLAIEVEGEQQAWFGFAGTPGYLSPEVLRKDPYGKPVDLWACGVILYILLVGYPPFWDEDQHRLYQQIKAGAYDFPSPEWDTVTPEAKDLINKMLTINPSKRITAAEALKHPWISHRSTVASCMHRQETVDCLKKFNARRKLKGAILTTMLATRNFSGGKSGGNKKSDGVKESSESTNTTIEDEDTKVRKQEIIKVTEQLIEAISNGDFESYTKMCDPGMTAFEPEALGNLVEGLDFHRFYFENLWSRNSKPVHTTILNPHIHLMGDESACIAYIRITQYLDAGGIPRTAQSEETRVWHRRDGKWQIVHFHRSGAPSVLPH

Row | SMILES | CAMK1G Tm [1] | CAMK2A Tm [2] | DAPK3 Tm [3] | PAK4 Tm [4] | GSK3B Tm [5] | CAMK4 Tm [6] | DCAMKL1 Tm [7]
1 | NC(=O)c1cnc(N2CCCC(N)C2)nc1Nc1cccc(C(F)(F)F)c1 (racemic) [Compound 6, (rac)-2-(3-Aminopiperidin-1-yl)-4-((3-(trifluoromethyl)phenyl)amino)pyrimidine-5-carboxamide Hydrochloride] | 8.82 0C | 1.21 0C | – | – | – | – | –
2 | CNC(=O)c1cnc(NCCN)nc1Nc1cccc(C(F)(F)F)c1 [Compound 2, 2-((2-Aminoethyl)amino)-N-methyl-4-((3-(trifluoromethyl)phenyl)amino)pyrimidine-5-carboxamide, reference compound] | 0.15 0C | -0.22 0C | – | – | – | – | –
3 | CNCCN(C)c1ncc(C(N)=O)c(Nc2cccc(C(F)(F)F)c2)n1 [Compound 4, 2-(Methyl(2-(methylamino)ethyl)amino)-4-((3-(trifluoromethyl)phenyl)amino)pyrimidine-5-carboxamide Hydrochloride] | 1.13 0C | 0.1 0C | – | – | – | – | –
4 | CN(C)CCN(C)c1ncc(C(N)=O)c(Nc2cccc(C(F)(F)F)c2)n1 [Compound 5, 2-((2-(Dimethylamino)ethyl)(methyl)amino)-4-((3-(trifluoromethyl)phenyl)amino)pyrimidine-5-carboxamide Hydrochloride] | 2.78 0C | 0.29 0C | – | – | – | – | –
5 | NC(=O)c1cnc(N2CCC[C@H](N)C2)nc1Nc1cc(C(F)(F)F)cc(C(F)(F)F)c1 [Compound 9] | 16.18 0C | 1.09 0C | 8.72 0C | 3.17 0C | -0.47 0C | 7.06 0C | 1.22 0C
6 | CC(C)(C)c1cccc(Nc2nc(N3CCC[C@H](N)C3)ncc2C(N)=O)c1 [Compound 10, (S)-2-(3-Aminopiperidin-1-yl)-4-((3-(tert-butyl)phenyl)amino)pyrimidine-5-carboxamide Hydrochloride] | 9.24 0C | 0.77 0C | 5.43 0C | 1.24 0C | 0.67 0C | 3.78 0C | 0.3 0C
7 | CS(=O)(=O)c1cccc(Nc2nc(N3CCC[C@H](N)C3)ncc2C(N)=O)c1 [Compound 11, (S)-2-(3-Aminopiperidin-1-yl)-4-((3-(methylsulfonyl)phenyl)amino)pyrimidine-5-carboxamide] | 7.26 0C | 0.53 0C | 6.85 0C | 3.75 0C | 1.4 0C | 4.49 0C | -0.09 0C
8 | NC(=O)c1cnc(N2CCC[C@H](N)C2)nc1Nc1cccc(-c2ccccc2)c1 [Compound 12, (S)-4-([1,1′-Biphenyl]-3-ylamino)-2-(3-aminopiperidin-1-yl)pyrimidine-5-carboxamide Hydrochloride] | 12.19 0C | 2.35 0C | 8.03 0C | 5.67 0C | 0.32 0C | 4.98 0C | 1.64 0C
9 | CC(C)(C#N)c1cccc(Nc2nc(N3CCC[C@H](N)C3)ncc2C(N)=O)c1 [Compound 13, (S)-2-(3-Aminopiperidin-1-yl)-4-((3-(2-cyanopropan-2-yl)phenyl)amino)pyrimidine-5-carboxamide] | 6.35 0C | 0.6 0C | 6.82 0C | 1.98 0C | 0.46 0C | 4.38 0C | 0.32 0C
